# Results published in US9273364B2 (Kyoto University, priority 2010, dated 2016).
# Counter-ions that a name gives are not always drawn. Like-named read-outs stand apart in the source and are kept apart here.
# Test system: alternative splicing of a specific gene (GFP/RFP reporter)
# Assay: Compound screen with GFP/RFP alternative splicing reporter
# Type: cell-based
# Description: Strategy of a method for testing whether or not a compound to be tested affects an alternative splicing of a specific gene in a mammalian multicelluar organism is shown in FIG. 14.
# The reporter proteins used for the method are GFP and FRP.
# [1] = cell count after compound at final conc., Ctrl number of cells 4303-5627
# [2] = reporter ratio relative to control = 1, final conc. per compound (μM, 50 ng/mL)
molecule,measurement,setting,value
N[C@@H](Cc1ccc(N(CCCl)CCCl)cc1)C(=O)O (racemic) [Melphalan],Number of cells,[1],483
Nc1ccn([C@@H]2O[C@H](CO)[C@@H](O)C2(F)F)c(=O)n1 (racemic) [Gemcitabine HCl],Number of cells,50 ng/mL,156
COc1c(C)c2c(c(O)c1C/C=C(\C)CCC(=O)O)C(=O)OC2 [Mycophenolic acid],Number of cells,50 ng/mL,1367
NC[C@H](O)c1ccc(O)c(O)c1.O=C(O)C(O)C(O)C(=O)O [Norepinephrine-(+)-tartrate l (−)],Number of cells,,4210
same,GFP/RFP (Ctrl = 1),[2],1.594
CC(=O)O[C@@]12CO[C@@H]1C[C@H](O)[C@@]1(C)C(=O)[C@H](O)C3=C(C)[C@@H](OC(=O)[C@H](O)[C@@H](NC(=O)OC(C)(C)C)c4ccccc4)C[C@@](O)([C@@H](OC(=O)c4ccccc4)[C@H]21)C3(C)C [Docetaxil],Number of cells,,1194
same,GFP/RFP (Ctrl = 1),[2],1.862
O=C1CCC(N2C(=O)c3ccccc3C2=O)C(=O)N1 (stereo not shown) [Thaldomide],Number of cells,,2622
same,GFP/RFP (Ctrl = 1),[2],1.271
CC[C@@]1(O)C(=O)OCc2c1cc1n(c2=O)Cc2cc3cc(O)ccc3nc2-1 [10-hydroxycamptothecin],GFP/RFP (Ctrl = 1),,3.114
same,Number of cells,[1],541
CC/C(=C(/CC)c1ccc(O)cc1)c1ccc(O)cc1 (racemic) [Diethylstilbestrol],Number of cells,50 ng/mL,542
CCC[S+]([O-])c1ccc2[nH]c(NC(=O)OC)nc2c1 (racemic) [Ricobendazole],Number of cells,[1],1381
C[C@H]1C[C@@H]2[C@H]([C@@H](O)C[C@@]3(C)[C@H]2CC[C@]3(O)C(=O)CO)[C@@]2(C)C=CC(=O)C=C12 (racemic) [Methylprednisolone],Number of cells,50 ng/mL,3084
COc1ccc(CCN2CCC(Nc3nc4ccccc4n3Cc3ccc(F)cc3)CC2)cc1 [Astemizole],Number of cells,50 ng/mL,38
Cc1cc2c(OCC(CNC(C)(C)C)OC(=O)c3ccccc3)cccc2[nH]1.O=C(O)CC(=O)O (stereo not shown) [Bopindolol malonate],Number of cells,,3625
same,GFP/RFP (Ctrl = 1),[2],1.265
CNC[C@H](O)c1ccc(O)c(O)c1.O=C(O)C(O)C(O)C(=O)O [Epinephrine-(+)-tartrate l (−)],Number of cells,,4057
same,GFP/RFP (Ctrl = 1),[2],1.528
CCCCC[C@H](O)/C=C/[C@H]1[C@H](O)CC(=O)[C@@H]1CCCCCCC(=O)O [Alprostadil],Number of cells,50 ng/mL,3505
C[C@@H]1CN(c2c(F)c(N)c3c(=O)c(C(=O)O)cn(C4CC4)c3c2F)C[C@H](C)N1 [Sparfloxacin],Number of cells,50 ng/mL,3029
C[C@H]1[C@H](OC(=O)CCC(=O)O)O[C@@H]2O[C@@]3(C)CC[C@H]4[C@H](C)CC[C@@H]1[C@@]24OO3 [Artesunate],Number of cells,50 ng/mL,246
COc1c(C)c2c(c(O)c1C/C=C(\C)CCC(=O)OCCN1CCOCC1)C(=O)OC2 (racemic) [Mycophenolate mofetil],Number of cells,[1],500
CC(N)C(O)c1ccccc1 (racemic) [Phenylpropanolamine],Number of cells,[1],2551
NC(=O)c1ncn([C@@H]2O[C@H](CO)[C@@H](O)[C@H]2O)n1 (racemic) [Ribavirin],Number of cells,,3140
CCCc1nc2c(C)cc(-c3nc4ccccc4n3C)cc2n1Cc1ccc(-c2ccccc2C(=O)O)cc1 (racemic) [Telmisartan],Number of cells,,3042
COc1cc([C@@H]2c3cc4c(cc3[C@@H](O[C@@H]3O[C@@H]5CO[C@@H](C)O[C@H]5[C@H](O)[C@H]3O)[C@H]3COC(=O)[C@H]23)OCO4)cc(OC)c1O [Etoposide],Number of cells,50 ng/mL,055
O=C(NC(Cc1cc(=O)[nH]c2ccccc12)C(=O)O)c1ccc(Cl)cc1 (racemic) [Rebamipide],Number of cells,50 ng/mL,2922
CC(C)C[C@H](NC(=O)[C@H](Cc1ccccc1)NC(=O)c1cnccn1)B(O)O (racemic) [Bortezomib],Number of cells,50 ng/mL,74
COC(=O)C1=C(C)NC(C)=C(C(=O)OC)C1c1ccccc1[N+](=O)[O-] [Nifedipine],Number of cells,50 ng/mL,156
C[C@@H]1[C@H](O)[C@@H](C)/C=C/C=C/CC/C=C/C=C/C=C/C=C/C(O[C@H]2O[C@H](C)[C@@H](O)[C@H](N)[C@@H]2O)CC2O[C@](O)(CC(O)C(O)CCC(O)CC(O)CC(O)CC(=O)O[C@H]1C)CC(O)C2C(=O)O (stereo partly shown) [Nystatin],GFP/RFP (Ctrl = 1),,1.253
same,Number of cells,[1],3293
C#C[C@]1(O)CC[C@H]2[C@@H]3CCC4=CC(=O)CC[C@@H]4[C@H]3CC[C@@]21C (racemic) [Norethindrone],Number of cells,,3205
Bleomycin sulfate,GFP/RFP (Ctrl = 1),,1.477
same,Number of cells,[1],2702
COc1ccc(CC2c3cc(OC)c(OC)cc3CC[N+]2(C)CCC(=O)OCCCCCOC(=O)CC[N+]2(C)CCc3cc(OC)c(OC)cc3C2Cc2ccc(OC)c(OC)c2)cc1OC (racemic) [Atracurium besylate],Number of cells,50 ng/mL,3056
O=c1[nH]c(=O)n([C@H]2C[C@H](O)[C@@H](CO)O2)cc1F (racemic) [Floxuridine],Number of cells,50 ng/mL,142
CC1(C)C[C@@H]1C(=O)N/C(=C\CCCCSC[C@H](N)C(=O)O)C(=O)O [Cilastatin],"cell count per well (c9; column head not printed in these continuation tables, meaning inferred)",,2885
Cc1cn([C@H]2C[C@H](N=[N+]=[N-])[C@@H](CO)O2)c(=O)[nH]c1=O (racemic) [3′-azido-3′-deoxythymidine],Number of cells,,2356
CCOC(=O)C1=C(C)NC(C)=C(C(=O)OC)C1c1cccc(Cl)c1Cl (stereo not shown) [Felodipine],Number of cells,50 ng/mL,116
COc1ncnc(NS(=O)(=O)c2ccc(N)cc2)c1OC (racemic) [Sulfadoxine],Number of cells,50 ng/mL,2876
CC(CCc1ccc(O)cc1)NCCc1ccc(O)c(O)c1 (stereo not shown) [Dobutamine HCl],Number of cells,[1],2991
Clc1ccc(C(Cn2ccnc2)OCc2ccsc2Cl)c(Cl)c1 (racemic) [Tioconazole],Number of cells,50 ng/mL,850
CC(=O)OC[C@H]1O[C@@H]([S-])[C@H](OC(C)=O)[C@@H](OC(C)=O)[C@@H]1OC(C)=O.CCP(CC)CC.[Au+] [Auranofin],GFP/RFP (Ctrl = 1),,4.915
same,Number of cells,[1],1
CCCOc1ccc2nc(NC(=O)OC)[nH]c2c1 (racemic) [Oxibendazole],Number of cells,[1],786
COc1cc2nc(N3CCN(C(=O)c4ccco4)CC3)nc(N)c2cc1OC [Prazosin HCl],Number of cells,,2109
Nc1nc(Cl)nc2c1ncn2[C@@H]1O[C@H](CO)[C@@H](O)[C@@H]1F (racemic) [Clofarabine],Number of cells,50 ng/mL,19
CC(=O)O[C@H]1C(=O)[C@@]2(C)[C@H]([C@H](OC(=O)c3ccccc3)[C@]3(O)C[C@H](OC(=O)[C@H](O)[C@@H](NC(=O)c4ccccc4)c4ccccc4)C(C)=C1C3(C)C)[C@]1(OC(C)=O)CO[C@@H]1C[C@@H]2O [Taxol],Number of cells,50 ng/mL,719
Nc1ncnc2c1ncn2[C@@H]1O[C@H](CO)[C@@H](O)[C@@H]1O (racemic) [Vidarabine],Number of cells,50 ng/mL,1482
CC(=O)[C@]1(O)Cc2c(O)c3c(c(O)c2[C@@H](O[C@H]2C[C@H](N)[C@H](O)[C@H](C)O2)C1)C(=O)c1ccccc1C3=O (racemic) [Idarubicin],Number of cells,50 ng/mL,34
CC(C)C(=O)c1c(C(C)C)nn2ccccc12 (racemic) [Ibudilast],Number of cells,50 ng/mL,3018
CN1CCCN=C1/C=C/c1cccs1 (racemic) [Pyrantel pamoate],Number of cells,50 ng/mL,2985
COc1cccc2c1C(=O)c1c(O)c3c(c(O)c1C2=O)C[C@@](O)(C(C)=O)C[C@@H]3O[C@H]1C[C@H](N)[C@H](O)[C@H](C)O1 [Daunorubicin HCl],Number of cells,50 ng/mL,3
CCCCC(C)(O)C/C=C/[C@H]1[C@H](O)CC(=O)[C@@H]1CCCCCCC(=O)OC (mixture of isomers) [Misoprostol],Number of cells,50 ng/mL,3052
CC[C@@]1(O)C(=O)OCc2c1cc1n(c2=O)Cc2cc3ccccc3nc2-1 [Camptothecin],Number of cells,[1],385
N.N.O=C([O-])C1(C(=O)[O-])CCC1.[Pt+2] [Carboplatin],GFP/RFP (Ctrl = 1),,1.875
same,Number of cells,[1],1373
CC(C)NCC(O)COc1cccc2ccccc12 (stereo not shown) [Propranolol],Number of cells,50 ng/mL,2641
Cc1c(Cl)cccc1Nc1ccccc1C(=O)O (racemic) [Tolfenamic acid],Number of cells,,2697
c1ccc(-c2ccc(C(c3ccccc3)n3ccnc3)cc2)cc1 (racemic) [Bifonazole],Number of cells,50 ng/mL,921
CCC(NC(C)C)C(O)c1ccc(O)c2[nH]c(=O)ccc12 (stereo not shown) [Procaterol hcl],Number of cells,,4151
CC[C@@]1(O)C[C@H](O[C@H]2C[C@H](N(C)C)[C@H](O[C@H]3C[C@H](O)[C@H](O[C@H]4CCC(=O)[C@H](C)O4)[C@H](C)O3)[C@H](C)O2)c2c(cc3c(c2O)C(=O)c2c(O)cccc2C3=O)[C@H]1C(=O)OC [Aclarubicin],Number of cells,[1],10
CC(C)NCC(O)c1ccc(O)c(O)c1.Cl (racemic) [Isoproterenol HCl (rac)],Number of cells,,3953
same,GFP/RFP (Ctrl = 1),[2],1.614
CN(C)CCC(c1ccc(Cl)cc1)c1ccccn1 (racemic) [Chlorpheniramine maleate],Number of cells,,3724
Apomorphine r (−),GFP/RFP (Ctrl = 1),,1.357
same,Number of cells,[1],3372
O=c1[nH]cc(F)c(=O)[nH]1 (racemic) [5-fluorouracil],Number of cells,50 ng/mL,433
C[C@]12C=CC(=O)C=C1CC[C@@H]1[C@@H]2[C@@H](O)C[C@@]2(C)[C@H]1CC[C@]2(O)C(=O)CO (racemic) [Prednisolone],Number of cells,50 ng/mL,2900
C[C@]12CC[C@@H]3c4ccc(O)cc4C[C@@H](CCCCCCCCC[S+]([O-])CCCC(F)(F)C(F)(F)F)[C@H]3[C@@H]1CC[C@@H]2O (mixture of isomers) [Fulvestrant],Number of cells,[1],2156
CO[C@@]12[C@H](COC(N)=O)C3=C(C(=O)C(C)=C(N)C3=O)N1C[C@@H]1N[C@@H]12 [Mitomycin c],GFP/RFP (Ctrl = 1),,3.767
same,Number of cells,[1],319
COc1cc(-c2ccc(=O)[nH]n2)ccc1OC(F)F [Zardaverine],Number of cells,[1],2744
COC(=O)Nc1nc2ccc([S+]([O-])c3ccccc3)cc2[nH]1 (racemic) [Oxfendazole],Number of cells,[1],1712
COc1cc(NS(=O)(=O)c2ccc(N)cc2)nc(OC)n1 (racemic) [Sulfadimethoxine],Number of cells,50 ng/mL,3092
